Data taken from patent US20260262643A1, “HERBICIDAL BENZOXAZINES” (FMC CORPORATION, priority 2022, published 2026).

Assays:
[1] = test system: blackgrass; experiment: Test A preemergence; format: in vivo, Alopecurus myosuroides
Method in brief: (§1)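 Plants were grown in loam and sand and treated preemergence or postemergence (one- to two-leaf stage, 2–10 cm) with compound in solvent plus surfactant. Response was scored against untreated controls after 10 greenhouse days, where 0 means no effect and 100 complete control.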

[2] = test system: corn; experiment: Test A preemergence; format: in vivo, Zea mays
Method in brief: as §1

[3] = test system: foxtail, giant; experiment: Test A preemergence; format: in vivo, Setaria faberi
Method in brief: as §1

[4] = test system: goosegrass; experiment: Test A preemergence; format: in vivo, Eleusine indica
Method in brief: as §1

[5] = test system: kochia; experiment: Test A preemergence; format: in vivo, Bassia scoparia
Method in brief: as §1

[6] = test system: oat, wild; experiment: Test A preemergence; format: in vivo, Avena fatua
Method in brief: as §1

[7] = test system: pigweed, palmer; experiment: Test A preemergence; format: in vivo, Amaranthus palmeri
Method in brief: as §1

[8] = test system: ragweed; experiment: Test A preemergence; format: in vivo, Ambrosia artemisiifolia
Method in brief: as §1

[9] = test system: ryegrass, Italian; experiment: Test A preemergence; format: in vivo, Lolium multiflorum
Method in brief: as §1

[10] = test system: soybean; experiment: Test A preemergence; format: in vivo, Glycine max
Method in brief: as §1

[11] = test system: wheat; experiment: Test A preemergence; format: in vivo, Triticum aestivum
Method in brief: as §1

[12] = test system: blackgrass; experiment: Test A postemergence; format: in vivo, Alopecurus myosuroides; settings: postemergence, 10 days; for Blackgrass plant response rating: 125 g ai/ha, 0 to 100 scale, 0 no effect, 100 complete control; for Plant response rating, Blackgrass: 500 g ai/ha, visual injury, 0 to 100 scale (0 no effect, 100 complete control)
Method in brief: as §1

[13] = test system: corn; experiment: Test A postemergence; format: in vivo, Zea mays; settings: postemergence, 10 days; for Corn plant response rating: 125 g ai/ha, 0 to 100 scale, 0 no effect, 100 complete control; for Plant response rating, Corn: 500 g ai/ha, visual injury, 0 to 100 scale (0 no effect, 100 complete control)
Method in brief: as §1

[14] = test system: foxtail, giant; experiment: Test A postemergence; format: in vivo, Setaria faberi; settings: postemergence, 10 days; for Foxtail, Giant plant response rating: 125 g ai/ha, 0 to 100 scale, 0 no effect, 100 complete control; for Plant response rating, Foxtail, Giant: 500 g ai/ha, visual injury, 0 to 100 scale (0 no effect, 100 complete control)
Method in brief: as §1

[15] = test system: goosegrass; experiment: Test A postemergence; format: in vivo, Eleusine indica; settings: postemergence, 10 days; for Goosegrass plant response rating: 125 g ai/ha, 0 to 100 scale, 0 no effect, 100 complete control; for Plant response rating, Goosegrass: 500 g ai/ha, visual injury, 0 to 100 scale (0 no effect, 100 complete control)
Method in brief: as §1

[16] = test system: kochia; experiment: Test A postemergence; format: in vivo, Bassia scoparia; settings: postemergence, 10 days; for Kochia plant response rating: 125 g ai/ha, 0 to 100 scale, 0 no effect, 100 complete control; for Plant response rating, Kochia: 500 g ai/ha, visual injury, 0 to 100 scale (0 no effect, 100 complete control)
Method in brief: as §1

[17] = test system: oat, wild; experiment: Test A postemergence; format: in vivo, Avena fatua; settings: postemergence, 10 days; for Oat, Wild plant response rating: 125 g ai/ha, 0 to 100 scale, 0 no effect, 100 complete control; for Plant response rating, Oat, Wild: 500 g ai/ha, visual injury, 0 to 100 scale (0 no effect, 100 complete control)
Method in brief: as §1

[18] = test system: pigweed, palmer; experiment: Test A postemergence; format: in vivo, Amaranthus palmeri; settings: postemergence, 10 days; for Pigweed, Palmer plant response rating: 125 g ai/ha, 0 to 100 scale, 0 no effect, 100 complete control; for Plant response rating, Pigweed, Palmer: 500 g ai/ha, visual injury, 0 to 100 scale (0 no effect, 100 complete control)
Method in brief: as §1

[19] = test system: ragweed; experiment: Test A postemergence; format: in vivo, Ambrosia artemisiifolia; settings: postemergence, 10 days; for Ragweed plant response rating: 125 g ai/ha, 0 to 100 scale, 0 no effect, 100 complete control; for Plant response rating, Ragweed: 500 g ai/ha, visual injury, 0 to 100 scale (0 no effect, 100 complete control)
Method in brief: as §1

[20] = test system: ryegrass, Italian; experiment: Test A postemergence; format: in vivo, Lolium multiflorum; settings: postemergence, 10 days; for Ryegrass, Italian plant response rating: 125 g ai/ha, 0 to 100 scale, 0 no effect, 100 complete control; for Plant response rating, Ryegrass, Italian: 500 g ai/ha, visual injury, 0 to 100 scale (0 no effect, 100 complete control)
Method in brief: as §1

[21] = test system: soybean; experiment: Test A postemergence; format: in vivo, Glycine max; settings: postemergence, 10 days; for Soybean plant response rating: 125 g ai/ha, 0 to 100 scale, 0 no effect, 100 complete control; for Plant response rating, Soybean: 500 g ai/ha, visual injury, 0 to 100 scale (0 no effect, 100 complete control)
Method in brief: as §1

[22] = test system: wheat; experiment: Test A postemergence; format: in vivo, Triticum aestivum; settings: postemergence, 10 days; for Wheat plant response rating: 125 g ai/ha, 0 to 100 scale, 0 no effect, 100 complete control; for Plant response rating, Wheat: 500 g ai/ha, visual injury, 0 to 100 scale (0 no effect, 100 complete control)
Method in brief: as §1

[23] = test system: galium; experiment: Test A postemergence; format: in vivo, Galium aparine; settings: postemergence, 10 days; for Galium plant response rating: 125 g ai/ha, 0 to 100 scale, 0 no effect, 100 complete control; for Plant response rating, Galium: 500 g ai/ha, visual injury, 0 to 100 scale (0 no effect, 100 complete control)
Method in brief: as §1

[24] = test system: horseweed; experiment: Test A postemergence; format: in vivo, Erigeron canadensis; settings: postemergence, 10 days; for Horseweed plant response rating: 125 g ai/ha, 0 to 100 scale, 0 no effect, 100 complete control; for Plant response rating, Horseweed: 500 g ai/ha, visual injury, 0 to 100 scale (0 no effect, 100 complete control)
Method in brief: as §1

[25] = test system: barnyardgrass; experiment: Test B flooded paddy test; format: in vivo, Echinochloa crus-galli; settings: 250 g ai/ha, Flood, 13 days, 0 to 100 scale (0 no effect, 100 complete control)
Method in brief: (§2)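 2-leaf stage; pots flooded 3 cm over soil; compound dosed into paddy water; depth kept constant. Greenhouse, 13 d. Visual rating vs controls, 0 (no effect)–100 (complete control). Dash = no result.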

[26] = test system: ducksalad; experiment: Test B flooded paddy test; format: in vivo, Heteranthera limosa; settings: 250 g ai/ha, Flood, 13 days, 0 to 100 scale (0 no effect, 100 complete control)
Method in brief: as §2

[27] = test system: rice; experiment: Test B flooded paddy test; format: in vivo, Oryza sativa; settings: 250 g ai/ha, Flood, 13 days, 0 to 100 scale (0 no effect, 100 complete control)
Method in brief: as §2

[28] = test system: sedge, umbrella; experiment: Test B flooded paddy test; format: in vivo, Cyperus difformis; settings: 250 g ai/ha, Flood, 13 days, 0 to 100 scale (0 no effect, 100 complete control)
Method in brief: as §2

[29] = 125 g ai/ha, visual injury after 10 days, 0 to 100 scale, 0 is no effect, 100 is complete control
[30] = 500 g ai/ha, 0 to 100 scale (0 no effect, 100 complete control), 10 days

CCc1ncn(-c2ccc(C)c(C(=O)N3C[C@H](C)Oc4c(C)cccc43)c2)n1 [Compound 98]
Plant response rating, Blackgrass [1, 29]: 60
Plant response rating, Blackgrass [1, 30]: 80
Plant response rating, Corn [2, 29]: 10
Plant response rating, Corn [2, 30]: 30
Plant response rating, Foxtail, Giant [3, 29]: 100
Plant response rating, Foxtail, Giant [3, 30]: 100
Plant response rating, Goosegrass [4, 29]: 100
Plant response rating, Goosegrass [4, 30]: 100
Plant response rating, Kochia [5, 29]: 80
Plant response rating, Kochia [5, 30]: 100
Plant response rating, Oat, Wild [6, 29]: 70
Plant response rating, Oat, Wild [6, 30]: 90
Plant response rating, Pigweed, Palmer [7, 29]: 100
Plant response rating, Pigweed, Palmer [7, 30]: 100
Plant response rating, Ragweed [8, 29]: 30
Plant response rating, Ragweed [8, 30]: 90
Plant response rating, Ryegrass, Italian [9, 29]: 100
Plant response rating, Ryegrass, Italian [9, 30]: 100
Plant response rating, Soybean [10, 29]: 90
Plant response rating, Soybean [10, 30]: 100
Plant response rating, Wheat [11, 29]: 50
Plant response rating, Wheat [11, 30]: 60
Blackgrass plant response rating [12]: 70
Plant response rating, Blackgrass [12]: 90
Corn plant response rating [13]: 50
Plant response rating, Corn [13]: 90
Foxtail, Giant plant response rating [14]: 90
Plant response rating, Foxtail, Giant [14]: 90
Goosegrass plant response rating [15]: 80
Plant response rating, Goosegrass [15]: 100
Kochia plant response rating [16]: 80
Plant response rating, Kochia [16]: 90
Oat, Wild plant response rating [17]: 80
Plant response rating, Oat, Wild [17]: 90
Pigweed, Palmer plant response rating [18]: 90
Plant response rating, Pigweed, Palmer [18]: 100
Ragweed plant response rating [19]: 60
Plant response rating, Ragweed [19]: 60
Ryegrass, Italian plant response rating [20]: 70
Plant response rating, Ryegrass, Italian [20]: 100
Soybean plant response rating [21]: 100
Plant response rating, Soybean [21]: 100
Wheat plant response rating [22]: 80
Plant response rating, Wheat [22]: 90
Galium plant response rating [23]: 100
Plant response rating, Galium [23]: 100
Horseweed plant response rating [24]: 30
Plant response rating, Horseweed [24]: 60
Plant response rating, Barnyardgrass [25]: 45
Plant response rating, Ducksalad [26]: 65
Plant response rating, Rice [27]: 30
Plant response rating, Sedge, Umbrella [28]: 90

CCc1ncn(-c2ccc(CC)c(C(=O)N3C[C@H](C)Oc4c(Cl)cccc43)c2)n1 [Compound 95]
Plant response rating, Blackgrass [1, 29]: 70
Plant response rating, Blackgrass [1, 30]: 80
Plant response rating, Corn [2, 29]: 60
Plant response rating, Corn [2, 30]: 100
Plant response rating, Foxtail, Giant [3, 29]: 100
Plant response rating, Foxtail, Giant [3, 30]: 100
Plant response rating, Goosegrass [4, 29]: 100
Plant response rating, Goosegrass [4, 30]: 100
Plant response rating, Kochia [5, 29]: 60
Plant response rating, Kochia [5, 30]: 100
Plant response rating, Oat, Wild [6, 29]: 80
Plant response rating, Oat, Wild [6, 30]: 90
Plant response rating, Pigweed, Palmer [7, 29]: 90
Plant response rating, Pigweed, Palmer [7, 30]: 100
Plant response rating, Ragweed [8, 29]: 0
Plant response rating, Ragweed [8, 30]: 70
Plant response rating, Ryegrass, Italian [9, 29]: 100
Plant response rating, Ryegrass, Italian [9, 30]: 100
Plant response rating, Soybean [10, 29]: 50
Plant response rating, Soybean [10, 30]: 100
Plant response rating, Wheat [11, 29]: 90
Plant response rating, Wheat [11, 30]: 90
Blackgrass plant response rating [12]: 80
Plant response rating, Blackgrass [12]: 90
Corn plant response rating [13]: 60
Plant response rating, Corn [13]: 90
Foxtail, Giant plant response rating [14]: 90
Plant response rating, Foxtail, Giant [14]: 90
Goosegrass plant response rating [15]: 80
Plant response rating, Goosegrass [15]: 90
Kochia plant response rating [16]: 80
Plant response rating, Kochia [16]: 90
Oat, Wild plant response rating [17]: 70
Plant response rating, Oat, Wild [17]: 80
Pigweed, Palmer plant response rating [18]: 50
Plant response rating, Pigweed, Palmer [18]: 90
Ragweed plant response rating [19]: 0
Plant response rating, Ragweed [19]: 50
Ryegrass, Italian plant response rating [20]: 60
Plant response rating, Ryegrass, Italian [20]: 100
Soybean plant response rating [21]: 100
Plant response rating, Soybean [21]: 100
Wheat plant response rating [22]: 40
Plant response rating, Wheat [22]: 80
Galium plant response rating [23]: 100
Plant response rating, Galium [23]: 100
Horseweed plant response rating [24]: 0
Plant response rating, Horseweed [24]: 30
Plant response rating, Barnyardgrass [25]: 65
Plant response rating, Ducksalad [26]: 95
Plant response rating, Rice [27]: 0
Plant response rating, Sedge, Umbrella [28]: 98
